Marks after values point to notes of the source that are not given here.
Test system: human serum pool
Assay: Redox activity (oxy score from TOS, PAB, TAS, SHG) in vitro in human serum pool
Conditions: 37 °C, median (interquartile range); for Oxy score (OS), 2 h incubation, TBH added / Oxy score (OS), 24 h incubation, TBH added: with TBH added; for Oxy score (OS), 2 h incubation / Oxy score (OS), 24 h incubation: without TBH; for Oxy score (OS), 2 h incubation: average of five concentrations
Description: The remains of the serum samples were taken from healthy subjects after biochemical analysis; these subjects participated in regular medical examinations at the Military Medical Academy in Belgrade and consented to the formation of a serum pool. Neither the patients’ data nor their identities were used. Serum pool samples were prepared and aliquoted (450 µL portions) according to the routine procedure for in-house controle samples and preserved at the -80 °C until analysis. Five serial dilutions of the tested compounds (concentrations: 1000 µM, 500 µM, 250 µM, 125 µM and 62.5 µM) were added alone (50 µL) or in combination (25 µL) with oxidant TBH (25 µM) into 450 µL of serum. The compounds were dissolved in dimethyl sulfoxide (DMSO) for stock solution (1000 µM), while a PBS buffer (phosphate buffered saline) pH = 7.4 was used for serial dilutions (500 µM, 250 µM, 125 µM and 62.5 µM). Deionized water was used as a blank. DMSO and buffer pH = 7.4 were used as a control, while trolox solution (2 mmol/L) was used as a standard. All samples were incubated in duplicate for 2 h and 24 h at 37 °C.
Oxidative stress parameters (total antioxidative status (TAS), total oxidative status (TOS), total concentration of sulfhydryl group (SHG) and prooxidative–antioxidative balance (PAB)) were determined in order to calculate prooxidative score, antioxidative score and oxy score (OS). These parameters were determined in serum.
Total antioxidative status (TAS) was measured using Erel’s method, which was further optimized by Kotur-Stevuljevic et al. in 2015 [34]. ABTS (2,2-azino-bis(3-ethyl-benzthiazoline-6-sulfonic acid) is oxidized to a green-colored ABTS^+ cation by hydrogen peroxide in the acetate buffer (pH = 3.6). This stable cation is chromogen, and the presence of antioxidants in the samples causes its discoloration proportional to their concentrations. The absorbance was measured using a SPECTROstar Nano Microplate Reader (BMG Labtech, Ortenberg, Germany). The reaction was calibrated with Trolox and the TAS values are expressed as mmol trolox equivalent/L.
Total oxidative status (TOS) was measured using Erel’s method. Here, a ferrous ion-o-dianisidine complex is oxidized to ferric ion by the oxidants present in the sample. The ferric ion forms a colored complex with xylenol orange in an acidic environment and in the presence of glycerol. The intensity of the color of the formed complex is proportional to the total contents of oxidants in the sample. The absorbance was measured at 560 nm using a SPECTROstar Nano Microplate Reader (BMG Labtech, Ortenberg, Germany). The reaction was calibrated with hydrogen peroxide and the TOS values are expressed as µmol H2O2 equivalent/L.
Prooxidant–antioxidant balance (PAB) was measured according to procedures in the literature. Here, hydrogen peroxide is determined in the presence of antioxidants in the sample. Both of them (hydrogen peroxide and antioxidants (including uric acid)) react with chromogen TMB (3,3′,5,5′-tetramethylbenzidine) simultaneously. The hydrogen peroxide and chromogen reaction is enzymatically catalyzed with peroxidase, while the antioxidants–chromogen reaction is non-enzymatic. The intense blue color, produced as a result of the reaction between hydrogen peroxide and TMB, is decolorized by the reaction of the antioxidant with the TMB. The resulting color (result of two competitive reactions) is proportional to the ratio of antioxidants to prooxidants. The absorbance was measured at 450 nm. Different ratios of hydrogen peroxide and uric acid solutions were used to make a standard curve. The PAB results are expressed in hydrogen peroxide concentrations.
Total Sulfydryl Groups Content (SHG) was measured using a modified version of Ellman’s method. This method is based on the reaction between DTNB ([…]) and aliphatic thiol compounds in an alkaline environment (pH = 9.0). […]

SMILES	Oxy score (OS), 2 h incubation, TBH added	Oxy score (OS), 2 h incubation	Oxy score (OS), 24 h incubation, TBH added	Oxy score (OS), 24 h incubation
Cc1cc(C(C)(C)C)c(O)c(C(C)(C)C)c1 [BHT, Butylated hydroxytoluene, reference compound]	7.98 (6.77–8.81)	3.08 (2.73–3.26)	4.51 (4.38–7.22)	2.62 (2.14–3.22)
Cc1ccc(-c2cc(C(F)(F)F)nn2-c2ccc(S(N)(=O)=O)cc2)cc1 [Celecoxib, reference compound]	7.94 (6.97–8.45)	5.66 (2.92–12.90)	4.95 (4.57–10.25)	2.77 (2.46–3.27)
CC(C)(C)OO [TBH, tert-butyl hydroperoxide, reference compound]		6.40 (4.66–11.59)		6.43 (4.73–12.00)
Cc1c(C)c2c(c(C)c1O)CCC(C)(C(=O)O)O2 (centres unmarked) [Trolox, reference compound]		0.54 (−0.66–2.43)		0.07 (−0.59–0.59) *
NC(N)=O [Urea, urea, reference compound]	8.11 (7.61–8.79)	3.48 (3.44–4.08)	5.19 (4.96–14.00)	4.60 (3.62–6.02)
CC(c1cc2ccccc2s1)N(O)C(N)=O (centres unmarked) [Zileuton, reference compound]	6.87 (6.52–7.18)	2.60 (−7.86–7.54)	8.80 (5.71–13.66)	3.61 (2.47–4.93)

Source: PMC10142505, “Synthesis, Evaluation of Enzyme Inhibition and Redox Properties of Potential Dual COX-2 and 5-LOX Inhibitors” (Pharmaceuticals, 2023)
